# According to patent EP0148283A1, “Novel penicillanic acid derivatives” (F. HOFFMANN-LA ROCHE & CO. Aktiengesellschaft, priority 1983, dated 1985):
# Counter-ions that a name gives are not always drawn. Like-named read-outs stand apart in the source and are kept apart here.
# Columns and labels:
# Test in all cases: In vitro antibacterial activity, MIC by broth dilution in 96-well trays
# Assay type in all cases: cell-based
# S. pneumoniae = conditions: Streptococcus pneumoniae
# Method: (§1) The in vitro antibacterial activity of the following compounds:
# (§2) The diluted agents are dispensed in 100 µl amounts into the wells of a 96-well tray and used immediately or frozen at -10 to -70°C until needed. Using an automated inoculator, 1.5 µl of a 10^-2 dilution of an overnight culture is added to each well of the tray. The tops of the trays are then sealed using transparent tape and incubated overnight at 37°C. The trays are examined with the aid of a viewer. The lowest concentration at which no growth is observed is considered to be the minimum inhibitory concentration (MIC). [formula] [formula] [formula] [formula] [formula] [formula] [formula] [formula] [formula] [formula] [formula]
# S. pyogenes = conditions: Streptococcus pyogenes
# Method: as §1, §2
# S. aureus = conditions: Staphylococcus aureus
# Method: as §1, §2
# P.aeruginosa = conditions: Pseudomonas aeruginosa
# Method: as §1, §2
# S. faecalis = conditions: Enterococcus faecalis; S. faecalis C1
# Method: as §1, §2
# E. coli = conditions: Escherichia coli
# Method: as §1, §2
# P. vulgaris = conditions: Proteus vulgaris
# Method: as §1, §2
# E. cloacae = conditions: Enterobacter cloacae
# Method: as §1, §2
# S. schottmuelleri = system: S. schottmuelleri
# Method: as §1, §2
# P. mirabilis = conditions: Proteus mirabilis
# Method: as §1, §2
# S. marcescens = system: S. marcescens
# Method: as §1, §2
# C. diversus = conditions: Citrobacter koseri; C. diversus strain CDC 1663-72
# Method: as §1, §2
# P. rettgeri = conditions: Providencia rettgeri, ATCC9250; P. rettgeri strain ATCC 9250
# Method: as §1, §2
# K. pneumoniae = conditions: Klebsiella pneumoniae
# Method: as §1, §2
# E. aerogenes = conditions: Klebsiella aerogenes
# Method: as §1, §2
# S. typhi P58A = conditions: Salmonella enterica
# Method: as §1, §2
# C. freundii = conditions: Citrobacter freundii
# Method: as §1, §2
smiles,measurement,setting,value
"CC1(C)S[C@@H]2[C@H](N=CN3CCC(CC4=NCCCN4)CC3)C(=O)N2[C@H]1C(=O)O [Compound U, [2S-(2alpha,5alpha,6beta)]-6-[[[4-[(1,4,5,6-tetrahydro-2-pyrimidinyl)methyl]-1-piperidinyl]-methylene]amino]-3,3-dimethyl-7-oxo-4-thia-1-azabicyclo[3.2.0]heptane-2-carboxylic acid hydrochloride]",MIC,S. pneumoniae; S. pneumoniae strain 6301,2 mg/L
same,MIC,S. pneumoniae; S. pneumoniae strain 6302,4 mg/L
same,MIC,S. pneumoniae; S. pneumoniae strain SC,4 mg/L
same,MIC,S. pyogenes; S. pyogenes strain 4,4 mg/L
same,MIC,S. pyogenes; S. pyogenes strain 503-782,> 128 mg/L
same,MIC,S. aureus; S. aureus strain 1059B,> 128 mg/L
same,MIC,S. aureus; S. aureus strain Giorgio,8 mg/L
same,MIC,S. aureus; S. aureus strain Smith,8 mg/L
same,MIC,P.aeruginosa; P.aeruginosa strain 503-56,64 mg/L
same,MIC,P.aeruginosa; P.aeruginosa strain 503-820,> 128 mg/L
same,MIC,P.aeruginosa; P.aeruginosa strain 5700,0.5 mg/L
same,MIC,P.aeruginosa; P.aeruginosa strain 5712,> 128 mg/L
same,MIC,P.aeruginosa; P.aeruginosa strain 6148B,128 mg/L
same,MIC,P.aeruginosa; P.aeruginosa strain 8710,> 128 mg/L
same,MIC,P.aeruginosa; P.aeruginosa strain 8780,> 128 mg/L
same,MIC,P.aeruginosa; P.aeruginosa strain B,9.5 mg/L
same,MIC,P.aeruginosa; P.aeruginosa strain POW 151,> 128 mg/L
same,MIC,P.aeruginosa; P.aeruginosa strain Stone 130,> 128 mg/L
same,MIC,S. faecalis,128 mg/L
"CC1(C)S[C@@H]2[C@H](N=CN3CCCC(c4ncc[nH]4)C3)C(=O)N2[C@H]1C(=O)O (stereo partly drawn) [P, [2S-(2alpha,5alpha,6beta)]-6-[[[3-(1H-imidazol-2-yl)-1-piperidinyl]methylene]amino]-3,3-dimethyl-7-oxo-4-thia-1-azabicyclo[3.2.0]heptane-2-car-boxylic acid hydrochloride]",MIC,S. pneumoniae; S. pneumoniae strain 6301,1 mg/L
same,MIC,S. pneumoniae; S. pneumoniae strain 6302,1 mg/L
same,MIC,S. pneumoniae; S. pneumoniae strain SC,1 mg/L
same,MIC,S. pyogenes; S. pyogenes strain 4,0.5 mg/L
same,MIC,S. pyogenes; S. pyogenes strain 503-782,64 mg/L
same,MIC,S. aureus; S. aureus strain 1059B,64 mg/L
same,MIC,S. aureus; S. aureus strain Giorgio,4 mg/L
same,MIC,S. aureus; S. aureus strain Smith,2 mg/L
same,MIC,P.aeruginosa; P.aeruginosa strain 503-56,> 128 mg/L
same,MIC,P.aeruginosa; P.aeruginosa strain 503-820,> 128 mg/L
same,MIC,P.aeruginosa; P.aeruginosa strain 5700,8 mg/L
same,MIC,P.aeruginosa; P.aeruginosa strain 5712,> 128 mg/L
same,MIC,P.aeruginosa; P.aeruginosa strain 6148B,> 128 mg/L
same,MIC,P.aeruginosa; P.aeruginosa strain 8710,> 128 mg/L
same,MIC,P.aeruginosa; P.aeruginosa strain 8780,> 128 mg/L
same,MIC,P.aeruginosa; P.aeruginosa strain B,8 mg/L
same,MIC,P.aeruginosa; P.aeruginosa strain POW 151,> 128 mg/L
same,MIC,P.aeruginosa; P.aeruginosa strain Stone 130,> 128 mg/L
same,MIC,S. faecalis,64 mg/L
"CC1(C)S[C@@H]2[C@H](N=CN3CCC(Cc4ncc[nH]4)CC3)C(=O)N2[C@H]1C(=O)O [Q, [2S-(2alpha,5alpha,6beta)]-6-[[[4-(1H-imidazol-2-yl-methyl)-1-piperidinyl]methylene]amino]-3,3-dimethyl-7-oxo-4-thia-1-azabicyclo[3.2.0]heptane-2-carboxylic acid hydrochloride]",MIC,S. pneumoniae; S. pneumoniae strain 6301,1 mg/L
same,MIC,S. pneumoniae; S. pneumoniae strain 6302,2 mg/L
same,MIC,S. pneumoniae; S. pneumoniae strain SC,2 mg/L
same,MIC,S. pyogenes; S. pyogenes strain 4,1 mg/L
same,MIC,S. pyogenes; S. pyogenes strain 503-782,128 mg/L
same,MIC,S. aureus; S. aureus strain 1059B,128 mg/L
same,MIC,S. aureus; S. aureus strain Giorgio,8 mg/L
same,MIC,S. aureus; S. aureus strain Smith,8 mg/L
same,MIC,P.aeruginosa; P.aeruginosa strain 503-56,64 mg/L
same,MIC,P.aeruginosa; P.aeruginosa strain 503-820,128 mg/L
same,MIC,P.aeruginosa; P.aeruginosa strain 5700,0.125 mg/L
same,MIC,P.aeruginosa; P.aeruginosa strain 5712,> 128 mg/L
same,MIC,P.aeruginosa; P.aeruginosa strain 6148B,128 mg/L
same,MIC,P.aeruginosa; P.aeruginosa strain 8710,128 mg/L
same,MIC,P.aeruginosa; P.aeruginosa strain 8780,> 128 mg/L
same,MIC,P.aeruginosa; P.aeruginosa strain B,0.25 mg/L
same,MIC,P.aeruginosa; P.aeruginosa strain POW 151,> 128 mg/L
same,MIC,P.aeruginosa; P.aeruginosa strain Stone 130,> 128 mg/L
same,MIC,S. faecalis,128 mg/L
CC1(C)S[C@@H]2[C@H](/N=C/N3CCCCCC3)C(=O)N2[C@H]1C(=O)O [Amdinocillin],MIC,E. coli; E. coli strain 4,0.062 mg/L
same,MIC,E. coli; E. coli strain 48,0.062 mg/L
same,MIC,E. coli; E. coli strain 257,0.125 mg/L
same,MIC,E. coli; E. coli strain 387-1,0.031 mg/L
same,MIC,E. coli; E. coli strain 503-455,2 mg/L
same,MIC,E. coli; E. coli strain 5152,8 mg/L
same,MIC,E. coli; E. coli strain R-563,0.125 mg/L
same,MIC,"P. vulgaris; ATCC6380, P. vulgaris strain ATCC 6380",0.031 mg/L
same,MIC,P. vulgaris; P. vulgaris strain 100,0.5 mg/L
same,MIC,P. vulgaris; P. vulgaris strain 101,64 mg/L
same,MIC,E. cloacae; E. cloacae strain 24,0.125 mg/L
same,MIC,E. cloacae; E. cloacae strain 214,0.125 mg/L
same,MIC,E. cloacae; E. cloacae strain 5699,0.25 mg/L
same,MIC,E. cloacae; E. cloacae strain 6951,16 mg/L
same,MIC,E. cloacae; E. cloacae strain 9295,0.25 mg/L
same,MIC,E. cloacae; E. cloacae strain 9570A,0.125 mg/L
same,MIC,E. cloacae; E. cloacae strain P99,0.062 mg/L
same,MIC,S. schottmuelleri,0.062 mg/L
same,MIC,P. mirabilis,0.125 mg/L
same,MIC,"P. mirabilis; P. mirabilis strain 2, read-out: MIC",0.25 mg/L
same,MIC,"P. mirabilis; P. mirabilis strain 90, read-out: MIC",0.25 mg/L
same,MIC,"P. mirabilis; P. mirabilis strain 503-1136, read-out: MIC",2 mg/L
same,MIC,"P. mirabilis; P. mirabilis strain 620A, read-out: MIC",64 mg/L
same,MIC,S. marcescens; S. marcescens strain S3,0.125 mg/L
same,MIC,S. marcescens; S. marcescens strain S147,0.125 mg/L
same,MIC,S. marcescens; Serratia marcescens,0.125 mg/L
same,MIC,"S. marcescens; Serratia marcescens, S. marcescens strain 5805, read-out: MIC",1 mg/L
same,MIC,"S. marcescens; Serratia marcescens, S. marcescens strain S1, read-out: MIC",0.25 mg/L
same,MIC,"S. marcescens; Serratia marcescens, S. marcescens strain S2, read-out: MIC",0.25 mg/L
same,MIC,"S. marcescens; Serratia marcescens, S. marcescens strain S4, read-out: MIC",1 mg/L
same,MIC,"S. marcescens; Serratia marcescens, S. marcescens strain S5, read-out: MIC",1 mg/L
same,MIC,"S. marcescens; Serratia marcescens, S. marcescens strain S714, read-out: MIC",0.5 mg/L
same,MIC,C. diversus,0.062 mg/L
same,MIC,P. rettgeri,0.125 mg/L
same,MIC,K. pneumoniae; K. pneumoniae strain 35,0.125 mg/L
same,MIC,K. pneumoniae; K. pneumoniae strain 503-964,0.125 mg/L
same,MIC,"K. pneumoniae; K. pneumoniae strain 503-994, read-out: MIC",0.062 mg/L
same,MIC,"K. pneumoniae; K. pneumoniae strain 4964, read-out: MIC",64 mg/L
same,MIC,K. pneumoniae; K. pneumoniae strain 5096,128 mg/L
same,MIC,"K. pneumoniae; K. pneumoniae strain 8357, read-out: MIC",0.25 mg/L
same,MIC,"K. pneumoniae; K. pneumoniae strain A, read-out: MIC",0.031 mg/L
same,MIC,"K. pneumoniae; K. pneumoniae strain HE7, read-out: MIC",> 128 mg/L
same,MIC,E. aerogenes,128 mg/L
same,MIC,"E. aerogenes; E. aerogenes strain 83, read-out: MIC",8 mg/L
same,MIC,"E. aerogenes; E. aerogenes strain 503-478, read-out: MIC",4 mg/L
same,MIC,S. typhi P58A,0.062 mg/L
same,MIC,C. freundii; C. freundii strain CDC6,0.125 mg/L
same,MIC,"C. freundii; C. freundii strain 8ASM, read-out: MIC",0.062 mg/L
"CC1(C)S[C@@H]2[C@H](N=CN3CCC(CCCn4ccnc4CO)CC3)C(=O)N2[C@H]1C(=O)O [R, [2S-(2alpha,5alpha,6beta)]-6-[[[4-[3-[2-(hydroxy-methyl)-1H-imidazol-1-yl]propyl-1-piperidinyl]-methylene]amino]-3,3-dimethyl-7-oxo-4-thia-1-azabicyclo[3.2.0]heptane-2-carboxylic acid hydrochloride 1.1 molar hydrate]",MIC,S. pneumoniae; S. pneumoniae strain 6301,1 mg/L
same,MIC,S. pneumoniae; S. pneumoniae strain 6302,1 mg/L
same,MIC,S. pneumoniae; S. pneumoniae strain SC,0.5 mg/L
same,MIC,S. pyogenes; S. pyogenes strain 4,0.5 mg/L
same,MIC,S. pyogenes; S. pyogenes strain 503-782,128 mg/L
same,MIC,S. aureus; S. aureus strain 1059B,64 mg/L
same,MIC,S. aureus; S. aureus strain Giorgio,8 mg/L
same,MIC,S. aureus; S. aureus strain Smith,8 mg/L
same,MIC,P.aeruginosa; P.aeruginosa strain 503-56,> 128 mg/L
same,MIC,P.aeruginosa; P.aeruginosa strain 503-820,128 mg/L
same,MIC,P.aeruginosa; P.aeruginosa strain 5700,> 128 mg/L
same,MIC,P.aeruginosa; P.aeruginosa strain 5712,> 128 mg/L
same,MIC,P.aeruginosa; P.aeruginosa strain 6148B,128 mg/L
same,MIC,P.aeruginosa; P.aeruginosa strain 8710,> 128 mg/L
same,MIC,P.aeruginosa; P.aeruginosa strain 8780,> 128 mg/L
same,MIC,P.aeruginosa; P.aeruginosa strain B,128 mg/L
same,MIC,P.aeruginosa; P.aeruginosa strain POW 151,> 128 mg/L
same,MIC,P.aeruginosa; P.aeruginosa strain Stone 130,> 128 mg/L
same,MIC,S. faecalis,128 mg/L
"CN(C)C=Nc1nccn1CCCC1CCN(C=N[C@@H]2C(=O)N3[C@@H]2SC(C)(C)[C@@H]3C(=O)O)CC1 [S, [2S-(2alpha,5alpha,6beta)]-6-[[[4-[3-[2-[[(dimethylamino)methylene]amino]-1H-imidazol-1-yl]propyl]-1-piperidinyl]methylene]amino]-3,3-dimethyl-7-oxo-4-thia-1-azabicyclo[3.2.0]heptane-2-carboxylic acid 1.7 molar hydrochloride 2.6 molar hydrate]",MIC,S. pneumoniae; S. pneumoniae strain 6301,2 mg/L
same,MIC,S. pneumoniae; S. pneumoniae strain 6302,1 mg/L
same,MIC,S. pneumoniae; S. pneumoniae strain SC,0.5 mg/L
same,MIC,S. pyogenes; S. pyogenes strain 4,0.25 mg/L
same,MIC,S. pyogenes; S. pyogenes strain 503-782,128 mg/L
same,MIC,S. aureus; S. aureus strain 1059B,64 mg/L
same,MIC,S. aureus; S. aureus strain Giorgio,8 mg/L
same,MIC,S. aureus; S. aureus strain Smith,8 mg/L
same,MIC,P.aeruginosa; P.aeruginosa strain 503-56,> 128 mg/L
same,MIC,P.aeruginosa; P.aeruginosa strain 503-820,> 128 mg/L
same,MIC,P.aeruginosa; P.aeruginosa strain 5700,> 128 mg/L
same,MIC,P.aeruginosa; P.aeruginosa strain 5712,> 128 mg/L
same,MIC,P.aeruginosa; P.aeruginosa strain 6148B,> 128 mg/L
same,MIC,P.aeruginosa; P.aeruginosa strain 8710,> 128 mg/L
same,MIC,P.aeruginosa; P.aeruginosa strain 8780,> 128 mg/L
same,MIC,P.aeruginosa; P.aeruginosa strain B,> 128 mg/L
same,MIC,P.aeruginosa; P.aeruginosa strain POW 151,> 128 mg/L
same,MIC,P.aeruginosa; P.aeruginosa strain Stone 130,> 128 mg/L
same,MIC,S. faecalis,128 mg/L
